Experimental data taken from patent US10980889B1 (Revolution Medicines, Inc., priority 2018, dated 2021).

Experiments:
[1] = test system: P-Akt (S473); experiment: Cell based AlphaLISA assay, inhibition of P-Akt (S473) in MDA-MB-468 cells (mTORC2 substrate); conditions: AlphaLisa, two to four hours at 37° C.; for IC50: Homo sapiens, 4 h, read-out: pIC50 for Inhibition of mTORC1 and mTORC2 Substrate Phosphorylation p-AKT1/2/3-(S473) (converted)
How it was run: (§1)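 In MDA-MB-468 cells, phosphorylation of 4EBP1 (Thr37/46), P70S6K (Thr389) and AKT (Ser473) was measured after incubation with inhibitor by AlphaLISA SureFire Ultra on cell lysates, in duplicate. IC50 values came from control-normalized concentration-response regression.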

[2] = test system: P-P70S6K (T389); experiment: Cell based AlphaLISA assay, inhibition of P-P70S6K (T389) in MDA-MB-468 cells (mTORC1 substrate); conditions: AlphaLisa, two to four hours at 37° C.; for IC50: Homo sapiens, 4 h, read-out: pIC50 for Inhibition of mTORC1 and mTORC2 Substrate Phosphorylation p-P70S6K-(T389) (converted)
How it was run: as §1

[3] = test system: P-4E-BP1 (T37/46); experiment: Cell based AlphaLISA assay, inhibition of P-4E-BP1 (T37/46) in MDA-MB-468 cells (mTORC1 substrate); conditions: AlphaLisa, two to four hours at 37° C.; for IC50: Homo sapiens, 4 h, read-out: pIC50 for Inhibition of mTORC1 and mTORC2 Substrate Phosphorylation P-4E-BP1-(T37/46) (converted)
How it was run: as §1

SMILES | pIC50 for Inhibition of mTORC1 and mTORC2 Substrate Phosphorylation p-AKT1/2/3-(S473) [1] | pIC50 for Inhibition of mTORC1 and mTORC2 Substrate Phosphorylation p-P70S6K-(T389) [2] | pIC50 for Inhibition of mTORC1 and mTORC2 Substrate Phosphorylation P-4E-BP1-(T37/46) [3] | IC50 [1] [nM] | IC50 [2] [nM] | IC50 [3] [nM]
CO[C@H]1C[C@@H]2CC[C@@H](C)[C@@](O)(O2)C(=O)C(=O)N2CCCC[C@H]2C(=O)O[C@H]([C@H](C)C[C@@H]2CC[C@@H](OC(=S)NCCOCCOCCOCCOCCOCCOCCOCCOCCC(=O)N3CCc4cc(Cn5nc(-c6ccc7oc(N)nc7c6)c6c(N)ncnc65)ccc4C3)[C@H](OC)C2)C[C@@H](O)[C@H](C)/C=C(\C)[C@@H](O)[C@@H](OC)C(=O)[C@H](C)C[C@H](C)/C=C/C=C/C=C/1C [Example 77] | + (7.5 > pIC50 ≥ 6.0) | +++ (≥9) | ++ (8.5 > pIC50 ≥ 7.5) | – | – | –
CO[C@H]1C[C@@H]2CC[C@@H](C)[C@@](O)(O2)C(=O)C(=O)N2CCCC[C@H]2C(=O)O[C@H]([C@H](C)C[C@@H]2CC[C@@H](OC(=S)NCc3cnc(N4CCN(C(=O)CCOCCN5CCN(c6ncc(C(=O)N7CCc8cc(Cn9nc(-c%10ccc%11oc(N)nc%11c%10)c%10c(N)ncnc%109)ccc8C7)cn6)CC5)CC4)nc3)[C@H](OC)C2)CC(=O)[C@H](C)/C=C(\C)[C@@H](O)[C@@H](OC)C(=O)[C@H](C)C[C@H](C)/C=C/C=C/C=C/1C [Example 119] | – | – | – | 3.16 to 31.6 | < 1 | < 3.16
CO[C@H]1C[C@@H]2CC[C@@H](C)[C@@](O)(O2)C(=O)C(=O)N2CCCC[C@H]2C(=O)O[C@H]([C@H](C)C[C@@H]2CC[C@@H](OC(=O)N3CCc4nc(N5CCN(c6ncc(C(=O)N7CCN(c8ncc(C(=O)N9CCc%10cc(Cn%11nc(-c%12cnc%13oc(N)nc%13c%12)c%12c(N)ncnc%12%11)ccc%10C9)cn8)CC7)cn6)CC5)ncc4C3)[C@H](OC)C2)CC(=O)[C@H](C)/C=C(\C)[C@@H](O)[C@@H](OC)C(=O)[C@H](C)C[C@H](C)/C=C/C=C/C=C/1C [Example 62] | − (<6) | ++ (9 > pIC50 ≥ 8) | − (<6) | – | – | –
CO[C@H]1C[C@@H]2CC[C@@H](C)[C@@](O)(O2)C(=O)C(=O)N2CCCC[C@H]2C(=O)O[C@H]([C@H](C)C[C@@H]2CC[C@@H](OC(=O)NCc3cnc(N4CCN(C(=O)CCOCCN5CCN(c6ncc(C(=O)N7CCc8cc(Cn9nc(-c%10ccc%11oc(N)nc%11c%10)c%10c(N)ncnc%109)ccc8C7)cn6)CC5)CC4)nc3)[C@H](OC)C2)CC(=O)[C@H](C)/C=C(\C)[C@@H](O)[C@@H](OC)C(=O)[C@H](C)C[C@H](C)/C=C/C=C/C=C/1C [Example 109] | – | – | – | > 1000 | 10 to 1000 | > 1000
CO[C@H]1C[C@@H]2CC[C@@H](C)[C@@](O)(O2)C(=O)C(=O)N2CCCC[C@H]2C(=O)O[C@H]([C@H](C)C[C@@H]2CC[C@@H](OC(=O)NCc3cnc(N4CCN(C(=O)CCOCCN5CCN(c6ncc(C(=O)N7CCc8cc(Cn9nc(-c%10ccc%11oc(N)nc%11c%10)c%10c(N)ncnc%109)ccc8C7)cn6)CC5)CC4)nc3)[C@H](OC)C2)C[C@@H](O)[C@H](C)/C=C(\C)[C@@H](O)[C@@H](OC)C(=O)[C@H](C)C[C@H](C)/C=C/C=C/C=C/1C [Example 113] | – | – | – | 3.16 to 31.6 | < 1 | < 3.16
CO[C@H]1C[C@@H]2CC[C@@H](C)[C@@](O)(O2)C(=O)C(=O)N2CCCC[C@H]2C(=O)O[C@H]([C@H](C)C[C@@H]2CC[C@@H](OC(=O)N3CCc4nc(N5CCN(CCOCCN6CCN(c7ncc(C(=O)N8CCc9cc(Cn%10nc(-c%11ccc%12oc(N)nc%12c%11)c%11c(N)ncnc%11%10)ccc9C8)cn7)CC6)CC5)ncc4C3)[C@H](OC)C2)C[C@@H](OC)[C@H](C)/C=C(\C)[C@@H](O)[C@@H](OC)C(=O)[C@H](C)C[C@H](C)/C=C/C=C/C=C/1C [Example 129] | – | – | – | > 1000 | < 1 | < 3.16
CO[C@H]1C[C@@H]2CC[C@@H](C)[C@@](O)(O2)C(=O)C(=O)N2CCCC[C@H]2C(=O)O[C@H]([C@H](C)C[C@@H]2CC[C@@H](OC(=O)NCc3cnc(N4CCN(c5ncc(C(=O)NCCOCCOCCOCCOCCC(=O)N6CCc7cc(Cn8nc(-c9cnc%10[nH]ccc%10c9)c9c(N)ncnc98)ccc7C6)c(N)n5)CC4)nc3)[C@H](OC)C2)CC(=O)[C@H](C)/C=C(\C)[C@@H](O)[C@@H](OC)C(=O)[C@H](C)C[C@H](C)/C=C/C=C/C=C/1C [Example 108] | − (<6) | ++ (9 > pIC50 ≥ 8) | − (<6) | – | – | –
CO[C@H]1C[C@@H]2CC[C@@H](C)[C@@](O)(O2)C(=O)C(=O)N2CCCC[C@H]2C(=O)O[C@H]([C@H](C)C[C@@H]2CC[C@@H](OC(=O)NCCOCCOCCOCCOCCOCCOCCOCCOCC(=O)N3CCc4cc(Cn5nc(-c6ccc7oc(N)nc7c6)c6c(N)ncnc65)ccc4C3)[C@H](OC)C2)C[C@@H](O)[C@H](C)/C=C(\C)[C@@H](O)[C@@H](OC)C(=O)[C@H](C)C[C@H](C)/C=C/C=C/C=C/1C [Example 28] | – | – | – | > 1000 | < 1 | < 3.16
CO[C@H]1C[C@@H]2CC[C@@H](C)[C@@](O)(O2)C(=O)C(=O)N2CCCC[C@H]2C(=O)O[C@H]([C@H](C)C[C@@H]2CC[C@@H](OC(=O)NCc3cnc(N4CCN(C(=O)CCOCCN5CCN(c6ncc(C(=O)NCCS(=O)(=O)c7ccc(C(=O)N8CCOc9ccc(-c%10ccc(N)nc%10)cc9C8)c(C)c7F)cn6)CC5)CC4)nc3)[C@H](OC)C2)C[C@@H](OC)[C@H](C)/C=C(\C)[C@@H](O)[C@@H](OC)C(=O)[C@H](C)C[C@H](C)/C=C/C=C/C=C/1C [Example 123] | – | – | – | 31.6 to 1000 | < 1 | < 3.16
CO[C@H]1C[C@@H]2CC[C@@H](C)[C@@](O)(O2)C(=O)C(=O)N2CCCC[C@H]2C(=O)O[C@H]([C@H](C)C[C@@H]2CC[C@@H](OC(=O)NCc3cnc(N4CCN(c5ncc(C(=O)N6CCN(c7ncc(C(=O)N8CCc9cc(Cn%10nc(-c%11ccc%12oc(N)nc%12c%11)c%11c(N)ncnc%11%10)ccc9C8)cn7)CC6)cn5)CC4)nc3)[C@H](OC)C2)CC(=O)[C@H](C)/C=C(\C)[C@@H](O)[C@@H](OC)C(=O)[C@H](C)C[C@H](C)/C=C/C=C/C=C/1C [Example 139] | – | – | – | 31.6 to 1000 | < 1 | < 3.16
CO[C@H]1C[C@@H]2CC[C@@H](C)[C@@](O)(O2)C(=O)C(=O)N2CCCC[C@H]2C(=O)O[C@H]([C@H](C)C[C@@H]2CC[C@@H](OC(=O)NCCOCCOCCOCCOCCOCCOCCOCCOCCC(=O)NCCS(=O)(=O)c3ccc(C(=O)N4CCOc5ccc(-c6ccc(N)nc6)cc5C4)c(C)c3)[C@H](OC)C2)C[C@@H](OC)[C@H](C)/C=C(\C)[C@@H](O)[C@@H](OC)C(=O)[C@H](C)C[C@H](C)/C=C/C=C/C=C/1C [Example 42] | – | – | – | 3.16 to 31.6 | < 1 | < 3.16
CO[C@H]1C[C@@H]2CC[C@@H](C)[C@@](O)(O2)C(=O)C(=O)N2CCCC[C@H]2C(=O)O[C@H]([C@H](C)C[C@@H]2CC[C@@H](OC(=O)N3CCc4nc(N5CCN(C(=O)CCOCCN6CCN(c7ncc(C(=O)N8CCc9cc(Cn%10nc(-c%11ccc%12oc(N)nc%12c%11)c%11c(N)ncnc%11%10)ccc9C8)cn7)CC6)CC5)ncc4C3)[C@H](OC)C2)C[C@@H](OC)[C@H](C)/C=C(\C)[C@@H](O)[C@@H](OC)C(=O)[C@H](C)C[C@H](C)/C=C/C=C/C=C/1C [Example 117] | – | – | – | 3.16 to 31.6 | < 1 | < 3.16
